Where a name gives a salt, the structure may show the parent alone.
Columns and labels:
[1] = molecular target: PDE4 (cAMP-specific) (Homo sapiens, UniProt Q07343); assay: Inhibition of PDE4 activity, Method A (radioactive cAMP hydrolysis, cytosol of human PMNL); type: biochemical; settings: cAMP substrate, 1 μM motapizone
[2] = molecular target: T1, PDE3 (cGMP-inhibited) (Homo sapiens, UniProt Q14432); assay: Inhibition of PDE3 activity, Method A (homogenates of human platelets); type: biochemical
T1 construct: investigated in homogenates of human platelets; from tissue; host or cells: homogenates of human platelets
Protocol: The PDE activity was determined according to Thompson et al. (Adv Cycl Nucl Res 10: 69-92, 1979) with some modifications (Bauer and Schwabe, Naunyn-Schmiedeberg's Arch Pharmacol 311: 193-198, 1980). The test samples contained 20 mM Tris (pH 7.4), 5 mM MgCl2, 0.5 μM cAMP or cGMP, [^3H]cAMP or [^3H]cGMP (about 30 000 cpm/sample), the PDE isoenzyme-specific additives described in greater detail below, the indicated concentrations of inhibitor and an aliquot of the enzyme solution in a total sample volume of 200 μl. Dilution series of the compounds according to the invention were prepared in DMSO and further diluted in the samples [1:100 (v/v)], to give the desired end concentration of the inhibitors at a DMSO concentration of 1% (v/v), which for its part has only a minute effect on PDE activity.
After preincubation at 37° C. for 5 minutes, the reaction was started by addition of the substrate (cAMP or cGMP). The samples were incubated at 37° C. for a further 15 min. The reaction was terminated by addition of 50 μl 0.2 N HCl. After cooling on ice for 10 minutes and addition of 25 μg 5′-nucleotidase (snake venom from Crotalus atrox), the mixture was again incubated at 37° C. for 10 mih and the samples were then applied to QAE Sephadex A-25 columns (sample volume 1 ml). The columns were eluted with 2 ml of 30 mM ammonium formate (pH 6.0). The radioactivity of the eluate was measured and corrected by the corresponding blank values (measured in the presence of denatured protein); the blank values were less than 5% of the total radioactivity. In no case did the proportion of hydrolyzed nucleotide exceed 30% of the original substrate concentration.
PDE3 (cGMP-inhibited) was investigated in homogenates of human platelets (see Schudt et al., Biochem Pharmacol 1991: 42, 153-162) using cAMP or cGMP as substrate.
The IC50 values were determined from the concentration-inhibition curves by nonlinear regression.

[3] = molecular target: T2, PDE4B2 (Homo sapiens, UniProt Q07343); assay: Inhibition of recombinant PDE4B2, Method B (SPA test); type: biochemical; settings: 0.5 μM cAMP, read-out: PDE4 Inhibition [measured as −logIC50 (mol/l)] (converted)
T2 construct: made in house; host or cells: baculovirus, SF21 insect cells (virus made in SF9); 1000 x g supernatant of the homogenate
Protocol: The PDE4B2 (GB no. M97515) was a gift of Prof. M. Conti (Stanford University, USA). It was amplified from the original plasmid (pCMV5) via PCR with primers Rb9 (5′-[…]-3′) and Rb10 (5′-[…]-3′) and cloned into the pCR-Bac vector (Invitrogen, Groningen, NL).
(§1) The recombinant baculovirus was prepared by means of homologous recombination in SF9 insect cells. The expression plasmids were cotransfected with Bac-N-Blue (Invitrogen, Groningen, NL) or Baculo-Gold DNA (Pharmingen, Hamburg) using a standard protocol (Pharmingen, Hamburg). Wt virus-free recombinant virus supernatants were selected using plaque assay methods. After that, high-titre virus supernatants were prepared by amplifying 3 times. PDEs were expressed in SF21 cells by infecting 2×10^6 cells/ml with an MOI (multiplicity of infection) between 1 and 10 in serum-free SF900 medium (Life Technologies, Paisley, UK). The cells were cultured at 28° C. for 48-72 hours, after which they were pelleted for 5-10 min at 1000 g and 4° C.
(§2) The SF21 insect cells were resuspended, at a concentration of approx. 10^7 cells/ml, in ice-cold (4° C.) homogenization buffer (20 mM Tris, pH 8.2, containing the following additions: 140 mM NaCl, 3.8 mM KCl, 1 mM EGTA, 1 mM MgCl2, 10 mM β-mercaptoethanol, 2 mM benzamidine, 0.4 mM Pefablock, 10 μM leupeptin, 10 μM pepstatin A, 5 μM trypsin inhibitor) and disrupted by ultrasonication. The homogenate was then centrifuged for 10 min at 1000× g and the supernatant was stored at −80° C. until subsequent use (see below). The protein content was determined by the Bradford method (BioRad, Munich) using BSA as the standard.
PDE3A1 and PDE4B2 activities were inhibited by the said compounds in a modified SPA (scintillation proximity assay) test, supplied by Amersham Biosciences (see procedural instructions “phosphodiesterase [3H]cAMP SPA enzyme assay, code TRKQ 7090”), carried out in 96-well microtitre plates (MTP's). The test volume is 100 μl and contains 20 mM Tris buffer (pH 7.4), 0.1 mg of BSA (bovine serum albumin)/ml, 5 mM Mg^2+, 0.5 μM cAMP (including about 50,000 cpm of [3H]cAMP), 1 μl of the respective substance dilution in DMSO and sufficient recombinant PDE (1000× g supernatant, see above) to ensure that 10-20% of the cAMP is converted under the said experimental conditions. […] After a preincubation of 5 min at 37° C., the reaction is started by adding the substrate (cAMP) and the assays are incubated for a further 15 min; after that, they are stopped by adding SPA beads (50 μl). In accordance with the manufacturer's instructions, the SPA beads had previously been resuspended in water, but were then diluted 1:3 (v/v) in water; the diluted solution also contains 3 mM IBMX to ensure a complete PDE activity stop. After the beads have been sedimented (>30 min), the MTP's are analyzed in commercially available luminescence detection devices. The corresponding IC50 values of the compounds for the inhibition of PDE activities are determined from the concentration-effect curves by means of non-linear regression.

[4] = molecular target: T3, PDE3A1 (Homo sapiens, UniProt Q14432); assay: Inhibition of recombinant PDE3A1, Method B (SPA test); type: biochemical; settings: 0.5 μM cAMP, read-out: PDE3 Inhibition [measured as −logIC50 (mol/l)] (converted)
T3 construct: The whole ORF was subcloned into pBacPak9 (Clontech, Palo Alto) using EcoRi; made in house; host or cells: baculovirus (pBacPak9), SF21 insect cells (virus made in SF9); 1000 x g supernatant of the homogenate
From the text: The cDNA for PDE3A1 (GB no. U36798) was isolated in 2 steps using PCR. A 3′ terminal cDNA fragment of PDE3A1 was amplified from fat cells cDNA (Clontech, Palo Alto) using primers OZ 458 (5′-[…]-3′) and OZ 457 (5′-[…]-3′). The 5′ terminal cDNA fragment of PDE3A1 was amplified from Placenta cDNA (Clontech, Palo Alto) using primers OZ 455 (5′-[…]-3′) and OZ 456 (5′-[…]-3′). The PCR products were cloned into pCR2.1-Topo (Invitrogen, Groningen, NL) under standard conditions (the manufacturer's instructions). The 3′ fragment was cut out with HindII and cloned into the HindII site of the construct carrying the 5′ fragment. The whole ORF was subcloned into pBacPak9 (Clontech, Palo Alto) using EcoRi. Aminoacid 12 is Aspartic Acid like in sequence GB no. AJ005036, aa 69 and aa 110 are respective Serine and Glycine like in both sequences GB no. AJ005036 and GB no. M91667.
as §1, §2
PDE3A1 and PDE4B2 activities were inhibited by the said compounds in a modified SPA (scintillation proximity assay) test, supplied by Amersham Biosciences (see procedural instructions “phosphodiesterase [3H]cAMP SPA enzyme assay, code TRKQ 7090”), carried out in 96-well microtitre plates (MTP's). The test volume is 100 μl and contains 20 mM Tris buffer (pH 7.4), 0.1 mg of BSA (bovine serum albumin)/ml, 5 mM Mg^2+, 0.5 μM cAMP (including about 50,000 cpm of [3H]cAMP), 1 μl of the respective substance dilution in DMSO and sufficient recombinant PDE (1000× g supernatant, see above) to ensure that 10-20% of the cAMP is converted under the said experimental conditions. […] After a preincubation of 5 min at 37° C., the reaction is started by adding the substrate (cAMP) and the assays are incubated for a further 15 min; after that, they are stopped by adding SPA beads (50 μl). […] After the beads have been sedimented (>30 min), the MTP's are analyzed in commercially available luminescence detection devices. The corresponding IC50 values of the compounds for the inhibition of PDE activities are determined from the concentration-effect curves by means of non-linear regression.

T3 sequence (Q14432 whole entry): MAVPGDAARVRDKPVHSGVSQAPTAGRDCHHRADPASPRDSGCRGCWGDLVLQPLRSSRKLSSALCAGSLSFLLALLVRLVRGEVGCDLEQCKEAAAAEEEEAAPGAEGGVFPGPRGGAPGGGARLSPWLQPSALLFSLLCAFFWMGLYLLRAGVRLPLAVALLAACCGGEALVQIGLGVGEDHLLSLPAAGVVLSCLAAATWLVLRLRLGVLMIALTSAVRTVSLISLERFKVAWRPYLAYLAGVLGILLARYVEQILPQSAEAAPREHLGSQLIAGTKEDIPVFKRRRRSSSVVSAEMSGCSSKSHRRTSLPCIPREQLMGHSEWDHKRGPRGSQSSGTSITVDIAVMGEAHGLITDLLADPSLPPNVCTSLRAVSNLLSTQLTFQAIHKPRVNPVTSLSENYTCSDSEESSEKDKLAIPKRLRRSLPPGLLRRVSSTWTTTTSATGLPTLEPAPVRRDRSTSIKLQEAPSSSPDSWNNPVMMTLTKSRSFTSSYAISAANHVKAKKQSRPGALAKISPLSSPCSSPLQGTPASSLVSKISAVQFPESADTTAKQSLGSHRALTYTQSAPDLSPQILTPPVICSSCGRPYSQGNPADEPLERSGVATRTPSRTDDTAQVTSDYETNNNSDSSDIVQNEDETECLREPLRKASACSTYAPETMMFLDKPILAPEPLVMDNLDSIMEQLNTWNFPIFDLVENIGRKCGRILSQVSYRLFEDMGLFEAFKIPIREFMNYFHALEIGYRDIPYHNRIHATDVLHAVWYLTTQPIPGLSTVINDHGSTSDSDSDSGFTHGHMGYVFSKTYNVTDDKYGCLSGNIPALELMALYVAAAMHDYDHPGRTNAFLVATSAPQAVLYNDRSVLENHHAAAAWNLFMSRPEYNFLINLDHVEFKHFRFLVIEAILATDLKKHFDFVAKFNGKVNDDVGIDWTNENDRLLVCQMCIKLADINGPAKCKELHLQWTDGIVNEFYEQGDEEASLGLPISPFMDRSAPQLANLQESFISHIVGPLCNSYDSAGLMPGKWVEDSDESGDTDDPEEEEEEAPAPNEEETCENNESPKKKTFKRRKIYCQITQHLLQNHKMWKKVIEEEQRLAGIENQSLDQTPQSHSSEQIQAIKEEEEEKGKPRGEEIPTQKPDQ
T2 sequence (Q07343 1-564 isoform Q07343-2): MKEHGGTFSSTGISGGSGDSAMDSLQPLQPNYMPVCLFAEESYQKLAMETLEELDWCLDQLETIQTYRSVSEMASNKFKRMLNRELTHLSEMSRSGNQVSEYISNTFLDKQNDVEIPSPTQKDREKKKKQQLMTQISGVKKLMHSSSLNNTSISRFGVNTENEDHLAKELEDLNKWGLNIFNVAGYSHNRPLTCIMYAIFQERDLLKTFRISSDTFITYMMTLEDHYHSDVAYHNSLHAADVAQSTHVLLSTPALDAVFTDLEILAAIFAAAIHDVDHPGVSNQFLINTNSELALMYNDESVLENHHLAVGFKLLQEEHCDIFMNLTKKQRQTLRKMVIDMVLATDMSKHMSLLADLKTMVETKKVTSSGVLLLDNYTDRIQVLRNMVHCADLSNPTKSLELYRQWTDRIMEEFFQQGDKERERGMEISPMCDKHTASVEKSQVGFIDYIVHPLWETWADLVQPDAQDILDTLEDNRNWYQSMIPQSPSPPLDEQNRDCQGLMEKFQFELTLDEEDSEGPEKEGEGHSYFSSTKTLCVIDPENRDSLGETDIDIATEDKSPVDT
PDE4 (cAMP-specific), sequence (Q07343 whole entry): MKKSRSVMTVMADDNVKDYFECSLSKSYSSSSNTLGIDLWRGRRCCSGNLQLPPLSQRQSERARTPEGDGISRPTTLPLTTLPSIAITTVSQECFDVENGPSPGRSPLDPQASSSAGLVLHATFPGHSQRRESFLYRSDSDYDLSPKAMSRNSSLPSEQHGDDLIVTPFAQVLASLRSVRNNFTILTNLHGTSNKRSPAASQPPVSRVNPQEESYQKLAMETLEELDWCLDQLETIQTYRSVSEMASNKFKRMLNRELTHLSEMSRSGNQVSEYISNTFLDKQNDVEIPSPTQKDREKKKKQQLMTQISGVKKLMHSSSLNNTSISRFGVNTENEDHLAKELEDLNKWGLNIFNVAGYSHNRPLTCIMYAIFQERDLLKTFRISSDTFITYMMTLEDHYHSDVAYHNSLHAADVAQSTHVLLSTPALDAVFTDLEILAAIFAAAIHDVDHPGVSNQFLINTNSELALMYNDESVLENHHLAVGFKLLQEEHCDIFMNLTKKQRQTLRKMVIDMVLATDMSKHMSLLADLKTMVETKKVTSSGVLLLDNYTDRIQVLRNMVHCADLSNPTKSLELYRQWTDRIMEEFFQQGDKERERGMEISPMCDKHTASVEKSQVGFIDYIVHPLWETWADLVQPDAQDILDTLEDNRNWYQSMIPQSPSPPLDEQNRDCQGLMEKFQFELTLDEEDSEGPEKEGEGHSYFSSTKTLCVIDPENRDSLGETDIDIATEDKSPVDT
T1 sequence (Q14432 whole entry): as the sequence (Q14432 whole entry) above

Structure (SMILES)	PDE4 Inhibition [measured as −logIC50 (mol/l)] [1]	PDE3 Inhibition [measured as −logIC50 (mol/l)] [2]	IC50 [3]	IC50 [4]	melting point
COc1ccc(OC)c(S(=O)(=O)N2CCC(N3N=C(c4ccc(OC)c(OC)c4)CCC3=O)CC2)c1 [Compound 17]	7.8 -log(mol/l)	6.8 −log(mol/l) (pIC50)			
COc1ccc(C2=NN(C3CCN(C(=O)c4ccccc4)CC3)C(=O)CC2)cc1OC [Compound 23, 6-(3,4-Dimethoxy-phenyl)-2-[1-(1-phenyl-methanoyl)-piperidin-4-yl]-4,5-dihydro-2H-pyridazin-3-one]			7.94 nM	126 nM	152 to 154 °C
COc1ccc(C2=NN(C3CCN(CC(=O)N4CCN(C)CC4)CC3)C(=O)CC2)cc1OC.Cl.Cl [Compound 28, 6-(3,4-Dimethoxy-phenyl)-2-{1-[2-(4-methyl-piperazin-1-yl)-2-oxo-ethyl]-piperidin-4-yl}-4,5-dihydro-2H-pyridazin-3-one dihydrochloride]			20 nM	> 10000 nM	194 to 199 °C

Further lines, results first:

PDE4 Inhibition [measured as −logIC50 (mol/l)] [1]	PDE3 Inhibition [measured as −logIC50 (mol/l)] [2]	IC50 [3]	IC50 [4]	melting point	Structure (SMILES)
8.3 -log(mol/l)	6.9 −log(mol/l) (pIC50)				COc1ccc(C2=NN(C3CCN(S(=O)(=O)c4cccs4)CC3)C(=O)CC2)cc1OC [Compound 19, 6-(3,4-Dimethoxy-phenyl)-2-[1-(thiophene-2-sulfonyl)-piperidin-4-yl]-45-dihydro-2H-pyridazin-3-one]
		2.51 nM	15.8 nM	156 to 159 °C	COc1ccc(C2=NN(C3CCN(C(=O)c4c(Cl)cc(Cl)cc4Cl)CC3)C(=O)CC2)cc1OC [Compound 25, 6-(3,4-Dimethoxy-phenyl)-2-{1-[1-(2,4,6-trichloro-phenyl)-methanoyl]-piperidin-4-yl}-4,5-dihydro-2H-pyridazin-3-one]
		15.8 nM	3160 nM		COc1ccc(C2=NN(C3CCN(C(=O)CN4CCN(c5ccncc5)CC4)CC3)C(=O)CC2)cc1OC [Compound 29, 6-(3,4-Dimethoxy-phenyl)-2-{1-[2-(4-pyridin-4-yl-piperazin-1-yl)-ethanoyl]-piperidin-4-yl}-4,5-dihydro-2H-pyridazin-3-one dihydrochloride]
		39.8 nM	3980 nM	126 to 127 °C	COc1ccc(C2=NN(C3CCN(C(=O)CN4CCN(C(c5ccccc5)c5ccccc5)CC4)CC3)C(=O)CC2)cc1OC.Cl.Cl [Compound 31, 6-(3,4-Dimethoxy-phenyl)-2-(1-{2-[4-(1,1-diphenyl-methyl)-piperazin-1-yl]-ethanoyl}-piperidin-4-yl)-4,5-dihydro-2H-pyridazin-3-one dihydrochloride]
